In US9409893B2, “Heteroaryl derivatives and uses thereof” (Jacobus Pharmaceutical Company, Inc., priority 2012, dated 2016):
Where a name gives a salt, the structure may show the parent alone. Read-outs that look alike come from different tables or passages of the source.

Experiments:
P. falciparum strain D6 = experiment: [3H]-hypoxanthine growth inhibition assay, P. falciparum D6; type: cell-based; conditions: Plasmodium falciparum
Method: (§1) The potential for antimalarial activity against Plasmodium falciparum was determined by measuring the incorporation of tritiated hypoxanthine into parasitized red blood cells.
(§2) Stock solutions of the test compounds and the reference drug chloroquine (CQ) (Sigma Chemicals C-6628, Lot #059H0919) were prepared in silanized glass vials with AquaSil™ (Pierce, USA) to minimize absorption of the compounds to glassware. All test compounds were dissolved in DMSO (Sigma Cat No. #D8418) to 1 mM concentration, whereas CQ was dissolved in 50% methanol at a concentration of 1.6 mg/ml (base). Stock solutions were stored at −20° C.
(§3) The P. falciparum laboratory adapted strains utilized in this project (Table 1) were in vitro cultured and routinely maintained in RPMI-1640-LPLF complete medium, which contained low concentrations of para-amino benzoic acid (0.0005 mg/L) and folic acid (0.01 mg/L).
(§4) The low concentration of folic acid in RPMI-1640-LPLF prevents inhibition of the compound if its activity targets the parasite's folate metabolic pathway. Parasites were cultured in human red blood cells (RBCs) in vitro at 37° C. in special gas mixture (5% O2, 5% CO2 and 90% N2) as described Trager and Jensen (1979 Science 193:673-675).
(§5) Base cultivation medium consisted of 10.4 g/L RPMI-1640-LPLF powder (Gibco BRL), 5.97 g/L HEPES buffer (MP Biomedicals, USA), 2.0 g/L D-glucose (BDH chemicals, Australia), 0.05 g/L hypoxanthine (Sigma, USA) and 40 mg/L gentamycin (Pfizer, Australia). The pH of the medium was adjusted to 6.9 and the solution was filtered using 0.2 μm pore size (AcroCap, Gelman Science, USA). Complete medium was prepared by adding sodium bicarbonate solution (final concentration, 0.21%) and drug-free heat-inactivated human plasma, pooled from various blood types, obtained from the Australian Red Cross Blood Service (Brisbane) (final concentration, 10%) to the base RPMI-1640-LPLF. For [^3H]-hypoxanthine inhibition growth assay, RPMI-1640-LPLF complete medium which lacked [^3H]-hypoxanthine ([^3H]-RPMI-1640-LPLF) was used to prevent uptake of hypoxanthine by parasites, as radioactive hypoxanthine uptake is measured as a surrogate marker of growth. All complete medium was used within three days of preparation. See DE (Para) SOP 002 for methodology.
(§6) Red blood cells (RBC) were required for P. falciparum parasites to proliferate in vitro. 0 (Rh+) type blood was obtained from the Australian Red Cross Blood Service. The RBC were washed twice in phosphate-buffered saline (PBS) and once in [^3H]-RPMI-1640-LPLF complete medium by centrifugation at 1,500×g for 5 min. Following the final wash, the haematocrit was measured as the percent of RBC to total culture volume. The haematocrit was adjusted to 50% by removing or adding [^3H]-RPMI-LPLF complete medium. See DE (Para) SOP 003 for methodology.
(§7) All P. falciparum strains were grown in RPMI-1640-LPLF complete medium at 4% haematocrit and 1% to 8% parasitaemia at 37° C. in sealed flasks in a gas mixture of 5% O2, 5% CO2 and 90% N2 (BOC Gases, Brisbane, Australia). For drug susceptibility assays cultures were routinely synchronized when the majority of parasites (>85%) were at early trophozoite (ring) stage. Synchronization involved removing the more mature erythrocytic parasite stages by lysis, resulting in the retention only of early trophozoite (ring) stages. Synchronization was performed by re-suspending the infected red blood cell (iRBC) pellet in 5 to 10 times its volume of 5% D-sorbitol (Bacto Laboratories Pty. Ltd., Australia) for 5 min (Lambros and Vanderberg, 1979 J Parasitol 65: 418-420). The mixture was centrifuged (1,500 rpm for 5 min) and the supernatant removed. The iRBC were washed twice using PBS buffer and once using [^3H]-RPMI-LPLF plain medium. Following synchronization, a new culture was prepared with an initial parasitaemia of 1% in RPMI-LPLF complete medium. See DE (Para) SOP 008 for methodology.

P. falciparum strain W2 = experiment: [3H]-hypoxanthine growth inhibition assay, P. falciparum W2; type: cell-based; conditions: Plasmodium falciparum
Method: as §1, §2, §3, §4, §5, §6, §7

[1] = P. falciparum D6 (sensitive to chloroquine and pyrimethamine), [3H]-hypoxanthine incorporation, read-out: D6 IC50
[2] = P. falciparum W2 (resistant to chloroquine and pyrimethamine), [3H]-hypoxanthine incorporation, read-out: W2 IC50

CC(C)(C)NCc1cc(C(C)(C)C)cc(-c2ccc(N3CCCC3)nc2)c1O [Example 15, 4-(tert-Butyl)-2-((tert-butylamino)methyl)-6-(6-(pyrrolidin-1-yl)pyridin-3-yl)phenol dihydrochloride] gave an IC50 (P. falciparum strain D6; D6, read-out: D6 IC50) of 24 nM and an IC50 (P. falciparum strain W2; W2, read-out: W2 IC50) of 16 nM.

CC(C)(C)NCc1cc(F)cc(-c2ccc(C(F)(F)F)nc2)c1O [Example 68, 2-((tert-Butylamino)methyl)-4-fluoro-6-(6-(trifluoromethyl)pyridin-3-yl)phenol hydrochloride] gave an IC50 (P. falciparum strain D6; [1]) of 221 nM and an IC50 (P. falciparum strain W2; [2]) of 126 nM.

Cn1nc(C(F)(F)F)cc1-c1cc(C(C)(C)C)cc(CNC(C)(C)C)c1O [Example 9, 4-(tert-Butyl)-2-((tert-butylamino)methyl)-6-(1-methyl-3-(trifluoromethyl)-1H-pyrazol-5-yl)phenol hydrochloride] showed an IC50 (P. falciparum strain D6; [1]) of 94 nM and an IC50 (P. falciparum strain W2; [2]) of 48 nM.

Work on COc1cncc(-c2cc(C(C)(C)C)cc(CNC(C)(C)C)c2O)c1 [Example 17, 4-(tert-Butyl)-2-((tert-butylamino)methyl)-6-(5-methoxypyridin-3-yl)phenol dihydrochloride] yielded an IC50 (P. falciparum strain D6; D6, read-out: D6 IC50) of 30 nM and an IC50 (P. falciparum strain W2; W2, read-out: W2 IC50) of 25 nM.

CC(C)NCc1cc(C(C)(C)C)cc(-c2ccc(C(F)(F)F)nc2)c1O [Example 48, 4-(tert-Butyl)-2-((isopropylamino)methyl)-6-(6-(trifluoromethyl)pyridin-3-yl)phenol hydrochloride] showed an IC50 (P. falciparum strain D6; [1]) of 5 nM and an IC50 (P. falciparum strain W2; [2]) of 5 nM.

CC(C)(C)NCc1cc(C(C)(C)C)cc(-c2ccnc3ccccc23)c1O [Example 8, 4-(tert-Butyl)-2-((tert-butylamino)methyl)-6-(quinolin-4-yl)phenol dihydrochloride] showed an IC50 (P. falciparum strain D6; D6, read-out: D6 IC50) of 109 nM and an IC50 (P. falciparum strain W2; W2, read-out: W2 IC50) of 94 nM.

CCN(CC)CCCC(C)NCc1cc(C(C)(C)C)cc(-c2ccc(C(F)(F)F)nc2)c1O (centres unmarked) [Example 59, 4-(tert-Butyl)-2-(((5-(diethylamino)pentan-2-yl)amino)methyl)-6-(6-(trifluoromethyl)pyridin-3-yl)phenol dihydrochloride] was tested, and the IC50 (P. falciparum strain D6; D6, read-out: D6 IC50) was 87 nM and the IC50 (P. falciparum strain W2; W2, read-out: W2 IC50) was 97 nM.

In the case of CC(C)(C)NCc1cc(C(C)(C)C)cc(-c2ccc(C(C)(C)C)nc2)c1O [Example 22, 4-(tert-Butyl)-2-(6-(tert-butyl)pyridin-3-yl)-6-((tert-butylamino)methyl)phenol dihydrochloride], the IC50 (P. falciparum strain D6; D6, read-out: D6 IC50) is reported as 64 nM and the IC50 (P. falciparum strain W2; W2, read-out: W2 IC50) is reported as 24 nM.

Work on CC(C)(C)NCc1cc(C(C)(C)C)cc(-c2ccc(N)nc2)c1O [Example 11, 2-(6-Aminopyridin-3-yl)-4-(tert-butyl)-6-((tert-butylamino)methyl)phenol dihydrochloride] yielded an IC50 (P. falciparum strain D6; D6, read-out: D6 IC50) of 350 nM and an IC50 (P. falciparum strain W2; W2, read-out: W2 IC50) of 398 nM.

In the case of CC(C)(C)NCc1cc(C(C)(C)C)cc(-c2cccc(C(F)(F)F)n2)c1O [Example 29, 4-(tert-Butyl)-2-((tert-butylamino)methyl)-6-(6-(trifluoromethyl)pyridin-2-yl)phenol hydrochloride], the IC50 (P. falciparum strain D6; [1]) is reported as 192 nM and the IC50 (P. falciparum strain W2; [2]) is reported as 68 nM.

CC(C)(C)NCc1cc(C#N)cc(-c2ccc(C(F)(F)F)nc2)c1O [Example 71, 3-((tert-Butylamino)methyl)-4-hydroxy-5-(6-(trifluoromethyl)pyridin-3-yl)benzonitrile hydrochloride] was tested, and the IC50 (P. falciparum strain D6; [1]) was 93100 nM and the IC50 (P. falciparum strain W2; [2]) was 50700 nM.

Compound CC(C)(C)NCc1cc(C(C)(C)C)cc(-c2cnccc2C(F)(F)F)c1O [Example 36, 4-(tert-Butyl)-2-((tert-butylamino)methyl)-6-(4-(trifluoromethyl)pyridin-3-yl)phenol 1.9hydrochloride] has an IC50 (P. falciparum strain D6; [1]) of 779 nM and an IC50 (P. falciparum strain W2; [2]) of 401 nM.

COc1ccc(-c2cc(C(C)(C)C)cc(CNC(C)(C)C)c2O)cn1 [Example 12, 4-(tert-Butyl)-2-((tert-butylamino)methyl)-6-(6-methoxypyridin-3-yl)phenol dihydrochloride] gave an IC50 (P. falciparum strain D6; D6, read-out: D6 IC50) of 23 nM and an IC50 (P. falciparum strain W2; W2, read-out: W2 IC50) of 14 nM.

CC(C)(C)c1cc(CN)c(O)c(-c2ccc(C(F)(F)F)nc2)c1 [Example 64, 2-(Aminomethyl)-4-(tert-butyl)-6-(6-(trifluoromethyl)pyridin-3-yl)phenol hydrochloride] showed an IC50 (P. falciparum strain D6; [1]) of 216 nM and an IC50 (P. falciparum strain W2; [2]) of 202 nM.

Work on CC(C)(C)NCc1cc(Cl)cc(-c2ccc(C(F)(F)F)nc2)c1O [Example 69, 2-((tert-Butylamino)methyl)-4-chloro-6-(6-(trifluoromethyl)pyridin-3-yl)phenol hydrochloride] yielded an IC50 (P. falciparum strain D6; [1]) of 239 nM and an IC50 (P. falciparum strain W2; [2]) of 130 nM.

For CCN(CC)CCNCc1cc(C(C)(C)C)cc(-c2ccc(C(F)(F)F)nc2)c1O [Example 63, 4-(tert-Butyl)-2-(((2-(diethylamino)ethyl)amino)methyl)-6-(6-(trifluoromethyl)pyridin-3-yl)phenol dihydrochloride], the IC50 (P. falciparum strain D6; D6, read-out: D6 IC50) was 9 nM and the IC50 (P. falciparum strain W2; W2, read-out: W2 IC50) was 7 nM.

CC(C)(C)NCc1cc(-c2cccc(F)c2)cc(-c2ccc(C(F)(F)F)nc2)c1O [Example 67, 3-((tert-Butylamino)methyl)-3′-fluoro-5-(6-(trifluoromethyl)pyridin-3-yl)-[1,1′-biphenyl]-4-ol hydrochloride] was tested, and the IC50 (P. falciparum strain D6; [1]) was 100 nM and the IC50 (P. falciparum strain W2; [2]) was 53 nM.

CC(C)(C)NCc1cc(C(C)(C)C)cc(-c2ncccc2F)c1O [Example 27, 4-(tert-Butyl)-2-((tert-butylamino)methyl)-6-(3-fluoropyridin-2-yl)phenol 1.7hydrochloride] gave an IC50 (P. falciparum strain D6; [1]) of 6860 nM and an IC50 (P. falciparum strain W2; [2]) of 3440 nM.

In the case of CC(C)(C)NCc1cc(-c2ccc(S(C)(=O)=O)cc2)cc(-c2ccc(C(F)(F)F)nc2)c1O [Example 55, 3-((tert-Butylamino)methyl)-4′-(methylsulfonyl)-5-(6-(trifluoromethyl)pyridin-3-yl)-[1,1′-biphenyl]-4-ol hydrochloride], the IC50 (P. falciparum strain D6; [1]) is reported as 2500 nM and the IC50 (P. falciparum strain W2; [2]) is reported as 4000 nM.

CC(C)(C)c1cc(CN2CCOCC2)c(O)c(-c2ccc(C(F)(F)F)nc2)c1 [Example 49, 4-(tert-Butyl)-2-(morpholinomethyl)-6-(6-(trifluoromethyl)pyridin-3-yl)phenol hydrochloride] showed an IC50 (P. falciparum strain D6; [1]) of 244 nM and an IC50 (P. falciparum strain W2; [2]) of 214 nM.

CC(C)(C)c1cc(CNCCC(F)(F)F)c(O)c(-c2ccc(C(F)(F)F)nc2)c1 [Example 57, 4-(tert-Butyl)-2-(6-(trifluoromethyl)pyridin-3-yl)-6-(((3,3,3-trifluoropropyl)amino)methyl)phenol hydrochloride] gave an IC50 (P. falciparum strain D6; [1]) of 34 nM and an IC50 (P. falciparum strain W2; [2]) of 29 nM.

CC(C)(C)NCc1cc(C(C)(C)C)cc(-c2ncc(C(F)(F)F)cn2)c1O [Example 54, 4-(tert-Butyl)-2-((tert-butylamino)methyl)-6-(5-(trifluoromethyl)pyrimidin-2-yl)phenol hydrochloride] showed an IC50 (P. falciparum strain D6; [1]) of 6320 nM and an IC50 (P. falciparum strain W2; [2]) of 6120 nM.

CC(C)(C)NCc1cc(C(C)(C)C)cc(-c2cncc(Cl)c2)c1O [Example 21, 4-(tert-Butyl)-2-((tert-butylamino)methyl)-6-(5-chloropyridin-3-yl)phenol dihydrochloride] was tested, and the IC50 (P. falciparum strain D6; D6, read-out: D6 IC50) was 17 nM and the IC50 (P. falciparum strain W2; W2, read-out: W2 IC50) was 8 nM.

CN(C)c1ccc(-c2cc(C(C)(C)C)cc(CNC(C)(C)C)c2O)cn1 [Example 14, 4-(tert-Butyl)-2-((tert-butylamino)methyl)-6-(6-(dimethylamino)pyridin-3-yl)phenol dihydrochloride] showed an IC50 (P. falciparum strain D6; D6, read-out: D6 IC50) of 23 nM and an IC50 (P. falciparum strain W2; W2, read-out: W2 IC50) of 14 nM.

Work on CC(C)(C)NCc1cc(C(C)(C)C)cc(-c2ccc(C(F)(F)F)cn2)c1O [Example 40, 4-(tert-Butyl)-2-((tert-butylamino)methyl)-6-(5-(trifluoromethyl)pyridin-2-yl)phenol] yielded an IC50 (P. falciparum strain D6; [1]) of 231 nM and an IC50 (P. falciparum strain W2; [2]) of 79 nM.
